In patent US11986493B2 (University of Pittsburgh—Of the Commonwealth System of …, priority 2013, dated 2024):
Read-outs that look alike come from different tables or passages of the source.

Conditions: after inhalation
Source text: Measurement was made on mixed venous blood using PCW pullback samples at baseline (pre-dose) and at the maximally tolerated dose.

O=NO [nitrite, sodium nitrite]
plasma nitrite concentration (45 mg dose): 5 to 7 µM
plasma nitrite concentration (90 mg dose): 8 to 10 µM
